Source: patent US11959929B2, “Method of quantifying lysergic acid diethylamide (LSD) and 2,3-dihydro-3-hydroxy-2-oxo lysergide (O-H-LSD) in human plasma” (Universitatsspital Basel, priority 2020, dated 2024)
Several values for one entry are separate records, joined by “and”; a condition that tells them apart may be missing. Identical values can stand only once.

Experiment: Bench-top (short-term) stability test in human plasma, 8 hours at ambient temperature
Assay type: physicochemical
Conditions: for Change in concentration [%]: 8 h at RT vs Baseline; for Accuracy: single QC replicate; for Change in plasma concentration after 8 hours storage at room temperature: human plasma QC samples, 8 hours at room temperature, vs freshly processed QC
Text: Each analyte had to be stable in human plasma for at least three freeze-thaw cycles (for repeated sample preparations) and at ambient temperature for at least eight hours (maximal duration of sample preparation). Measured samples should be stable for a second injection when the first analytical run was not valid. The analytes had to be stable in the matrix at the intended storage temperatures and study duration.
An analyte was considered stable at one of the above tests when no increase or decrease of the analyte concentration of more than 15% for the mean of at least three analyzed QC samples at low, medium and at high concentration was observed.
Seven of each LLOQ, QCLOW, QCMID, QCHIGH, and ULOQ samples in human plasma were thawed at ambient temperature and kept at this temperature for 8 hours. Afterwards, the samples were worked up and analyzed. The values of the concentrations in the “short-term” samples were compared with freshly processed QC samples. Concentrations were calculated based on two freshly prepared CAL sets measured at the beginning and the end of the validation run.

Compound | Accuracy, Intra-assay Mean (LLOQ: 10 pg/ml, 8 h at RT) | Change in concentration [%] (LLOQ: 10 pg/ml) | Accuracy (LLOQ: 10 pg/ml, 8 h at RT) | Accuracy, Intra-assay Mean (LLOQ: 10 pg/ml, Baseline) | Accuracy (LLOQ: 10 pg/ml, Baseline) | Accuracy, Intra-assay Mean (QCHIGH: 1000 pg/ml, 8 h at RT) | Change in concentration [%] (QCHIGH: 1000 pg/ml) | Accuracy (QCHIGH: 1000 pg/ml, 8 h at RT) | Accuracy, Intra-assay Mean (QCHIGH: 1000 pg/ml, Baseline) | Accuracy (QCHIGH: 1000 pg/ml, Baseline) | Accuracy, Intra-assay Mean (QCLOW: 25 pg/ml, 8 h at RT) | Change in concentration [%] (QCLOW: 25 pg/ml) | Accuracy (QCLOW: 25 pg/ml, 8 h at RT) | Accuracy, Intra-assay Mean (QCLOW: 25 pg/ml, Baseline) | Accuracy (QCLOW: 25 pg/ml, Baseline) | Accuracy, Intra-assay Mean (QCMID: 100 pg/ml, 8 h at RT) | Change in concentration [%] (QCMID: 100 pg/ml) | Accuracy (QCMID: 100 pg/ml, 8 h at RT) | Accuracy, Intra-assay Mean (QCMID: 100 pg/ml, Baseline) | Accuracy (QCMID: 100 pg/ml, Baseline) | other results
CCN(CC)C(=O)[C@@H]1C=C2c3cccc4[nH]cc(c34)C[C@H]2N(C)C1 [LSD, Lysergic acid diethylamide] | 88.3% | 3.81% | 91.6% and 85.6% and 74.7* % and 83.10% and 92% and 86.1% and 91.7% | 91.8% | 96.6% and 95.7% and 83.2% | 97.8% | 1.99% | 98.2% and 98.3% and 97.2% and 96.8% and 96.2% and 97.7% and 100% | 95.9% | 96.9% and 96.4% and 94.3% | 92.7% | 0.0885% | 96% and 92.9% and 94.5% and 87.6% and 94.4% and 93.3% and 90% | 92.6% | 94% and 93.4% and 90.5% | 96% | −1.51% | 95.9% (2×) and 95.8% and 94.2% and 91.1% and 99.2% and 99.7% | 97.5% | 101% and 94.3% and 97.4% | Accuracy, Intra-assay Mean (ULOQ: 10000 pg/ml, 8 h at RT): 94.9%; Change in concentration [%] (ULOQ: 10000 pg/ml): −1.74%; Accuracy (ULOQ: 10000 pg/ml, 8 h at RT): 94.7% and 93.4% and 94.6% and 96.9% and 95.4% and 95% and 94.3%; Accuracy, Intra-assay Mean (ULOQ: 10000 pg/ml, Baseline): 96.6%; Accuracy (ULOQ: 10000 pg/ml, Baseline): 94.7% and 94.9% and 100%; Change in plasma concentration after 8 hours storage at room temperature: ≤ 3.81%
CCN(CC)C(=O)C1C=C2c3cccc4c3C(O)(C[C@H]2N(C)C1)C(=O)N4 (some centres unmarked) [O-H-LSD, 2,3-dihydro-3-hydroxy-2-oxo lysergide] | 91.2% | 0.176% | 90.4% and 94.3% and 63.8* % and 77.5* % and 83.1% and 101% and 87.9% | 91.1% | 95% and 88.9% and 89.4% | 95.1% | −1.51% | 96% and 100% and 91.8% and 94.6% and 93.6% and 95.8% and 93.9% | 96.6% | 97.7% and 96.2% and 95.9% | 96.4% | 1.1% | 89.2% and 93.3% and 97.6% and 102% and 103% and 97.1% and 91.9% | 95.3% | 94.7% and 91.5% and 99.8% | 95.8% | 0.652% | 97.1% and 91.5% and 95.2% and 98.3% and 94.6% and 99.6% and 94.5% | 95.2% | 95.7% and 98.6% and 91.4% | Found at, Intra-assay Mean (LLOQ: 10 pg/ml, 8 h at RT): 9.13 pg/mL; Found at, Intra-assay Mean (LLOQ: 10 pg/ml, Baseline): 9.11 pg/mL; Found at, Intra-assay Mean (QCHIGH: 1000 pg/ml, 8 h at RT): 951 pg/mL; Found at, Intra-assay Mean (QCHIGH: 1000 pg/ml, Baseline): 966 pg/mL; Found at, Intra-assay Mean (QCLOW: 25 pg/ml, 8 h at RT): 24.1 pg/mL; Found at, Intra-assay Mean (QCLOW: 25 pg/ml, Baseline): 23.8 pg/mL; Found at, Intra-assay Mean (QCMID: 100 pg/ml, 8 h at RT): 95.8 pg/mL; Found at, Intra-assay Mean (QCMID: 100 pg/ml, Baseline): 95.2 pg/mL; Accuracy, Intra-assay Mean (ULOQ: 10000 pg/ml, 8 h at RT): 91.1%; Found at, Intra-assay Mean (ULOQ: 10000 pg/ml, 8 h at RT): 9110 pg/mL; Change in concentration [%] (ULOQ: 10000 pg/ml): −4.52%; Accuracy (ULOQ: 10000 pg/ml, 8 h at RT): 90.2% and 93% and 90.7% and 88.2% and 93.2% and 91.5% and 91.1%; Accuracy, Intra-assay Mean (ULOQ: 10000 pg/ml, Baseline): 95.4%; Found at, Intra-assay Mean (ULOQ: 10000 pg/ml, Baseline): 9540 pg/mL; Accuracy (ULOQ: 10000 pg/ml, Baseline): 94.2% and 92.3% and 99.7%; Change in plasma concentration after 8 hours storage at room temperature: ≤ 4.52%
